From ChEMBL document CHEMBL5634087, “Novel 5-aminopyrazoles endowed with anti-angiogenetic properties: Design, synthesis and biological evaluation” (Eur J Med Chem, 2023)
Calls of active or inactive are those of the source. The calls are words filed in the database; no cut-off is given here.

Legend:
A549 = assay: Antiproliferative activity against human A549 cells assessed as growth rate at 10 uM incubated for 48 hrs by MTT assay relative to control; assay type: functional; settings: read-out: Activity
[1] = molecular target: Mitogen-activated protein kinase; ERK1/ERK2 (Homo sapiens) (UniProt P27361+P28482); assay: Inhibition of ERK1/2 phosphorylation in serum starved bFGF stimulated HFF cells assessed as residual phosphorylated ERK1/2 level at 20 uM preincubated for 10 mins followed by bFGF addition and measured after 20 mins by Western blotting analysis relative to control; assay type: cell-based; settings: time 30.0 min
Chain of Mitogen-activated protein kinase; ERK1/ERK2 (Homo sapiens) (P27361 whole entry, looked up): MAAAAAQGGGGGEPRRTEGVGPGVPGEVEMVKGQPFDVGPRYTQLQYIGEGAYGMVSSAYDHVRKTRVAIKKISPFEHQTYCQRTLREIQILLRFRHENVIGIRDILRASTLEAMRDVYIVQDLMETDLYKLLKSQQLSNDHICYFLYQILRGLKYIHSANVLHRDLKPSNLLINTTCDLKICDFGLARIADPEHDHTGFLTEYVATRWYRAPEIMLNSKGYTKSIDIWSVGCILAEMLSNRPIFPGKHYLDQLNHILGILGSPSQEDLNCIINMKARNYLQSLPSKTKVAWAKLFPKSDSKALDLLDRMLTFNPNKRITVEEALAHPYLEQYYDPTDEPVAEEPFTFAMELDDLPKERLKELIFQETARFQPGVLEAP
Chain of Mitogen-activated protein kinase; ERK1/ERK2 (Homo sapiens) (P28482 whole entry, looked up): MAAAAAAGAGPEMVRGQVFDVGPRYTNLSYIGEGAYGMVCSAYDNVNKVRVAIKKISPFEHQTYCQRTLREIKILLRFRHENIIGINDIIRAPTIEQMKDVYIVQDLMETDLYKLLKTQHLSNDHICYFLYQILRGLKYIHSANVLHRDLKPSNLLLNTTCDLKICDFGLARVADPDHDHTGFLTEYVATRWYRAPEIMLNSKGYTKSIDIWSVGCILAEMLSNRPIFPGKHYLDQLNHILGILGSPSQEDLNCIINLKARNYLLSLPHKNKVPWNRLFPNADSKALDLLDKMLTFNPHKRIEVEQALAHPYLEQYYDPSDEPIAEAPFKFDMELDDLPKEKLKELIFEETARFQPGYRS

HeLa = assay: Antiproliferative activity against human HeLa cells assessed as growth rate at 10 uM incubated for 48 hrs by MTT assay relative to control; assay type: functional; settings: read-out: Activity
SK-OV-3 = assay: Antiproliferative activity against human SK-OV-3 cells assessed as growth rate at 10 uM incubated for 48 hrs by MTT assay relative to control; assay type: functional; settings: read-out: Activity
HFF [2] = assay: Antiangiogenic activity in confluent HFF cells assessed as inhibition of cell migration at 20 uM incubated for 24 to 48 hrs by Hoechst 33342 staining based wound healing assay; assay type: functional; settings: Homo sapiens, time 24-48 hrs
HUVEC [3] = assay: Antiangiogenic activity in confluent VEGF stimulated HUVEC cells assessed as inhibition of cell migration at 20 uM incubated for 24 to 48 hrs by Hoechst 33342 staining based wound healing assay; assay type: functional; settings: Homo sapiens, time 24-48 hrs
SK-MEL-28 = assay: Antiproliferative activity against human SK-MEL-28 cells assessed as growth rate at 10 uM incubated for 48 hrs by MTT assay relative to control; assay type: functional; settings: read-out: Activity
MDA-MB-231 = assay: Antiproliferative activity against human MDA-MB-231 cells assessed as growth rate at 10 uM incubated for 48 hrs by MTT assay relative to control; assay type: functional; settings: read-out: Activity
[4] = molecular target: RAC-alpha serine/threonine-protein kinase (Homo sapiens) (UniProt P31749); assay: Inhibition of AKT phosphorylation in serum starved bFGF stimulated HFF cells at 20 uM preincubated for 10 mins followed by bFGF addition and measured after 20 mins by Western blotting analysis; assay type: cell-based; settings: time 30.0 min
Chain of RAC-alpha serine/threonine-protein kinase (Homo sapiens) (P31749 whole entry): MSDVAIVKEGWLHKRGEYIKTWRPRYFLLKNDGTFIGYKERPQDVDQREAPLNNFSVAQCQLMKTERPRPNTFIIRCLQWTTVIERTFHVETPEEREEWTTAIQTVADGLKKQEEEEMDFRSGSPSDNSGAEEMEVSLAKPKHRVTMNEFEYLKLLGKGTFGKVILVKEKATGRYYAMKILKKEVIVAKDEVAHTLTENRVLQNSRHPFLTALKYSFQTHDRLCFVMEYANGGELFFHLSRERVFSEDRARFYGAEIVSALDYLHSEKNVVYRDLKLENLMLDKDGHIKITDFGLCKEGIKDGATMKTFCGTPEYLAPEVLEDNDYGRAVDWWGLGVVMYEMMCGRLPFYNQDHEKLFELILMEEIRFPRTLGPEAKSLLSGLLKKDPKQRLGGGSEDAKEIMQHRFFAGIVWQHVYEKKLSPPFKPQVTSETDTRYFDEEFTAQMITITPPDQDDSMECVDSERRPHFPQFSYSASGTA

HepG2 = assay: Antiproliferative activity against human HepG2 cells assessed as growth rate at 10 uM incubated for 48 hrs by MTT assay relative to control; assay type: functional; settings: read-out: Activity
SK-BR-3 = assay: Antiproliferative activity against human SK-BR-3 cells assessed as growth rate at 10 uM incubated for 48 hrs by MTT assay relative to control; assay type: functional; settings: read-out: Activity
MCF7 = assay: Antiproliferative activity against human MCF7 cells assessed as growth rate at 10 uM incubated for 48 hrs by MTT assay relative to control; assay type: functional; settings: read-out: Activity
[5] = Cytotoxicity against human GM06114 cells assessed as growth rate at 10 uM incubated for 48 hrs by MTT assay relative to control; assay type: toxicity, cell-based; settings: gm06114, 48 h
[6] = molecular target: RAC-alpha serine/threonine-protein kinase (Homo sapiens) (UniProt P31749); assay: Inhibition of AKT phosphorylation in serum starved VEGF stimulated HUVEC cells at 20 uM preincubated for 10 mins followed by VEGF addition and measured after 20 mins by Western blotting analysis relative to control; assay type: cell-based; settings: time 30.0 min
HFF [7] = assay: Antiangiogenic activity in confluent HFF cells assessed as inhibition of cell migration at 20 uM incubated for 24 to 48 hrs by Hoechst 33342 staining based wound healing assay relative to control; assay type: functional, Homo sapiens; design: scale not given: the % may be the effect or the level left; settings: time 24-48 hrs
HFF [8] = assay: Antiangiogenic activity in confluent HFF cells assessed as relative migration rate at 20 uM incubated for 24 hrs by Hoechst 33342 staining based wound healing assay relative to control; assay type: functional, Homo sapiens
HFF [9] = assay: Antiangiogenic activity in confluent HFF cells assessed as relative migration rate at 20 uM incubated for 48 hrs by Hoechst 33342 staining based wound healing assay relative to control; assay type: functional, Homo sapiens
[10] = molecular target: RAC-alpha serine/threonine-protein kinase (Homo sapiens) (UniProt P31749); assay: Inhibition of AKT phosphorylation in serum starved bFGF stimulated HFF cells assessed as residual activity at 20 uM preincubated for 10 mins followed by bFGF addition and measured after 20 mins by Western blotting analysis relative to control; assay type: cell-based; settings: time 30.0 min
HUVEC [11] = assay: Antiangiogenic activity in confluent VEGF stimulated HUVEC cells assessed as relative cell migration rate at 20 uM incubated for 24 hrs by Hoechst 33342 staining based wound healing assay relative to control; assay type: functional, Homo sapiens

| Activity [1] [%] | inhibition [4] | inhibition [6] [%] | Activity [10] [%] | Structure (SMILES) | growth at 10 µM (A549) [%] | growth at 10 µM (HeLa) [%] | growth at 10 µM (SK-OV-3) [%] | Activity (HFF [2]) | Activity (HUVEC [3]) | growth at 10 µM (SK-MEL-28) [%] | growth at 10 µM (MDA-MB-231) [%] | growth at 10 µM (HepG2) [%] | growth at 10 µM (SK-BR-3) [%] | growth at 10 µM (MCF7) [%] | Activity [5] [%] | Activity (HFF [7]) [%] | Activity (HFF [8]) [%] | Activity (HFF [9]) [%] | Activity (HUVEC [11]) [%] |
| --- | --- | --- | --- | --- | --- | --- | --- | --- | --- | --- | --- | --- | --- | --- | --- | --- | --- | --- | --- |
| > 70 | inactive |  |  | CCCCC(Cn1nc(Nc2ccc(Cl)cc2)c(C(=O)OCC)c1N)OC(=O)Nc1cccc(C(F)(F)F)c1 (stereo not drawn) | 90.7 | 76.5 | 106 | inactive | inactive | 136 | 117 | 110 | 118 | 107 | 111.34 |  |  |  |  |
| > 70 |  | 34.2 |  | CCOC(=O)c1c(Nc2ccccc2)nn(CC(OC(=O)Nc2cccc(C(F)(F)F)c2)c2ccccc2)c1N (stereo not drawn) | 82.9 | 60.6 | 120 |  | inactive | 115 | 113 | 117 | 125 | 124 | 126.08 | <60 |  |  |  |
| > 70 |  | 21 | 27.3 | CCOC(=O)c1c(Nc2ccc(Cl)cc2)nn(CC(O)c2ccccc2)c1N (stereo not drawn) | 116 | 77.6 | 114 |  | inactive | 131 | 127 | 102 | 119 | 125 | 113.67 |  | <40 | <55 |  |
| > 70 | Active | 43 |  | CCCCC(O)Cn1nc(Nc2ccccc2C)c(C(=O)OCC)c1N (stereo not drawn) | 127 | 99 | 115 | Active | inactive | 121 | 127 | 99.9 | 110 | 118 | 114.61 |  |  |  |  |
| > 70 | inactive |  |  | CCCCC(Cn1nc(Nc2ccc(C)cc2)c(C(=O)OCC)c1N)OC(=O)Nc1cccc(C(F)(F)F)c1 (stereo not drawn) | 112 | 97 | 129 | inactive | inactive | 123 | 149 | 111 | 110 | 143 | 99.16 |  |  |  |  |
| > 70 |  | 16.2 | 27.3 | CCOC(=O)c1c(Nc2ccc(C)cc2)nn(CC(O)c2ccccc2)c1N (stereo not drawn) | 118 | 80 | 117 |  | inactive | 128 | 117 | 102 | 112 | 119 | 105.89 |  | <40 | <55 |  |
| > 70 | inactive |  |  | CCCCC(O)Cn1nc(Nc2cccc(Cl)c2)c(C(=O)OCC)c1N (stereo not drawn) | 136 | 117 | 128 | Active | inactive | 106 | 140 | 108 | 108 | 137 | 92.22 |  |  |  |  |
| > 70 |  |  | 27.3 | CCOC(=O)c1c(Nc2ccccc2)nn(CC(O)c2ccccc2)c1N (stereo not drawn) | 133 | 111 | 118 |  | inactive | 114 | 131 | 108 | 112 | 150 | 96.04 |  | <40 | <55 |  |

Second part, the molecule before the results:

| Structure (SMILES) | Activity [1] [%] | inhibition [4] | inhibition [6] [%] | Activity [10] [%] | growth at 10 µM (A549) [%] | growth at 10 µM (HeLa) [%] | growth at 10 µM (SK-OV-3) [%] | Activity (HFF [2]) | Activity (HUVEC [3]) | growth at 10 µM (SK-MEL-28) [%] | growth at 10 µM (MDA-MB-231) [%] | growth at 10 µM (HepG2) [%] | growth at 10 µM (SK-BR-3) [%] | growth at 10 µM (MCF7) [%] | Activity [5] [%] | Activity (HFF [7]) [%] | Activity (HFF [8]) [%] | Activity (HFF [9]) [%] | Activity (HUVEC [11]) [%] |
| --- | --- | --- | --- | --- | --- | --- | --- | --- | --- | --- | --- | --- | --- | --- | --- | --- | --- | --- | --- |
| CCOC(=O)c1c(Nc2ccc(C)cc2)nn(CC(OC(=O)Nc2cccc(C(F)(F)F)c2)c2ccccc2)c1N (stereo not drawn) | > 70 | inactive |  |  | 98.4 | 81.4 | 131 | inactive | inactive | 129 | 124 | 122 | 124 | 129 | 126.2 |  |  |  |  |
| CCCCC(Cn1nc(Nc2ccccc2Cl)c(C(=O)OCC)c1N)OC(=O)Nc1cccc(C(F)(F)F)c1 (stereo not drawn) | > 70 | inactive |  |  | 109 | 84.3 | 127 |  | inactive | 121 | 133 | 110 | 106 | 142 | 92.97 | <60 |  |  |  |
| CCCCC(O)Cn1nc(Nc2cccc(C)c2)c(C(=O)OCC)c1N (stereo not drawn) | > 70 | Active | 43 |  | 121 | 98.2 | 114 | Active | inactive | 110 | 113 | 105 | 107 | 112 | 110.95 |  | 10.57 |  |  |
| CCCCC(Cn1nc(Nc2ccccc2)c(C(=O)OCC)c1N)OC(=O)Nc1cccc(C(F)(F)F)c1 (stereo not drawn) | > 70 | inactive |  |  | 98.1 | 85.8 | 113 | inactive | inactive | 123 | 126 | 107 | 112 | 141 | 96.63 |  |  |  |  |
| CCCCC(O)Cn1nc(Nc2ccccc2)c(C(=O)OCC)c1N (stereo not drawn) | > 70 | Active | 43 |  | 130 | 115 | 118 | Active | inactive | 117 | 131 | 102 | 109 | 147 | 97.13 |  |  |  |  |
| CCCCC(Cn1nc(Nc2ccccc2C)c(C(=O)OCC)c1N)OC(=O)Nc1cccc(C(F)(F)F)c1 (stereo not drawn) | > 70 | inactive | 29.7 |  | 81.7 | 58.5 | 103 | inactive | inactive | 141 | 117 | 106 | 124 | 110 | 110.05 |  |  |  |  |
| CCCC(O)Cn1ncc(C(=O)OCC)c1NC(=O)Nc1cccc(C(F)(F)F)c1 (stereo not drawn) |  |  | 59.1 | 55.9 |  |  |  |  | inactive |  |  |  |  |  |  |  | 40.31 | 31.37 | 56.54 |
| CCCCC(O)Cn1nc(Nc2ccc(C)cc2)c(C(=O)OCC)c1N (stereo not drawn) | 50 | Active | 43 |  | 120 | 109 | 112 | Active | inactive | 122 | 134 | 99 | 105 | 155 | 106.98 |  |  | 14.34 |  |
